We go through 23 molecules from PMC5995905, “Confirmation of high-throughput screening data and novel mechanistic insights into VDR-xenobiotic interactions by orthogonal assays” (Scientific Reports, 2018).

“And” between values parts separate entries of the source, which are not always exact repeats. Equal values may be shown once. “Also recorded” adds a separate entry of the source. Where a name gives a salt, the structure may show the parent alone. Read-outs that look alike come from different tables or passages of the source.

Data set [1] has as its target VDR:SRC-1 (Homo sapiens, UniProt P11473). As to the kind of experiment: Mammalian 2-hybrid assay, recruitment of coactivator SRC-1 by VDR, Cos7 cells. Particulars: agonists; -RXR (empty pSG5); percentage of vitamin D3; conc. in Fig 5: ergocalciferol 60, lithocholic acid 50, calcipotriol 0.05, ethylphenol compound 40, 9 aminoacridine 50, tamoxifen citrate 20 μM.
For data set [2], the target named is human VDR ligand-binding domain. Further details: method as in PMID 21543282. Particulars: agonist mode; Tox21 qHTS data set; * = range of values; cited from earlier work.
In data set [3] the target is T1, human VDR (Homo sapiens, UniProt P11473).
T1 sequence (P11473 1-427): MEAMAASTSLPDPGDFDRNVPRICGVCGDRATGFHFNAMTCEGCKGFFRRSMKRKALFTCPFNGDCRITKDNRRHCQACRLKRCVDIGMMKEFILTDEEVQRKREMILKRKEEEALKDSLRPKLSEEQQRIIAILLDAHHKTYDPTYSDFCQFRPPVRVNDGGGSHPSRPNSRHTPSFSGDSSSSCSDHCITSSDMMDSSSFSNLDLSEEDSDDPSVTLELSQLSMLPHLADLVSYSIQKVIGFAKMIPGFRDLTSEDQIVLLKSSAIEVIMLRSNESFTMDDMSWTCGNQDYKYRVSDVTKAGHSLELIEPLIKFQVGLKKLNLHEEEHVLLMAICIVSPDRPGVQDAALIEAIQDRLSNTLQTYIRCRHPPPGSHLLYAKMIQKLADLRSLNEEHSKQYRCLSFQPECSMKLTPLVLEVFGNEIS
Briefly: Transient transactivation assay (CYP24-Luc), agonist mode, HEK293T cells. Particulars: for Derived Efficacy (fold induction): top asymptote of Hill or Gain-Loss model, maximum response.

The target of data set [4] is T2, VDR:RXR, VDR:SRC-1 and VDR:NCoR interactions (Homo sapiens, UniProt P11473).
T2 sequence (P11473 1-427): T1 sequence (P11473 1-427)
Briefly: Mammalian 2-hybrid assay, summary in words of VDR coregulator interactions. The class given is cell-based.

The target in data set [5] is T3, VDR:NCoR (Homo sapiens, UniProt P11473).
T3 sequence (P11473 1-427): T1 sequence (P11473 1-427)
As to the kind of experiment: Mammalian 2-hybrid assay, recruitment of corepressor NCoR by VDR, Cos7 cells.

Data set [6] addresses T1, human VDR. Briefly: Transient transactivation assay (CYP24-Luc), antagonist mode with 3 nM 1,25D3, HEK293T cells. The class given is cell-based.
The target in data set [7] is human VDR ligand-binding domain. Further details: method as in PMID 21543282. Particulars: read-out: Tox21 IC 50, cited from earlier work.
Where [8] appears, read: AC50 (μM), experimental AC50 as listed in Fig 4a, agonists.
[9] abbreviates: Derived AC50 (Transient transactivation assay), agonist mode, HEK293T cells, CYP24A1-Luc.
Where [10] appears, read: agonists, orthogonal transient transactivation assay, HEK293T cells.
The mark [11] stands for this setting: Derived IC 50 (Transient transactivation assay).
Setting [12] is: read-out: Derived IC 50 (Transient transactivation assay).
The mark [13] stands for this setting: top asymptote of Hill or Gain-Loss model, maximum response.
Setting [14] is: antagonist mode, Tox21 qHTS data set.
[15] abbreviates: antagonists, transient transactivation assay in the presence of 3 nM 1,25D3.
The mark [16] stands for this setting: inhibition of 3 nM 1,25D3-induced response, HEK293T cells, unit given in Fig 3 legend, read-out: Derived IC 50 (Transient transactivation assay).
Where [17] appears, read: experimental AC50 as listed in Fig 4a, antagonists, read-out: AC50.

The term AC50 denotes the concentration at which the activity in the assay is half-maximal.

For the molecule `CCc1cc(Cc2cc(CC)cc(C(C)(C)C)c2O)c(O)c(C(C)(C)C)c1` [2,2′-methylenebis(6-tert-butyl-4-ethylphenol)], the “% Induction, pMSRC-1NR + EpSG5” value in data set [1] is listed as 7.2%. For the same molecule, the AC50 was 52600 nM in data set [2], 35.4 µM in data set [3] (setting [8]) and 36.8 µM in data set [3] (setting [9]). The result in data set [3] (setting [10]) was Active. Also, the “Derived Efficacy (fold induction)” value in data set [3] turned out to be 89.3748 fold induction.

`O=S(=O)(O)c1ccc2ccc(S(=O)(=O)O)cc2c1` [2,7 Naphthalene disulfonic acid]: the AC50 in data set [2] is 14500 nM; in data set [3] (setting [9]), 13.8 µM. Further, the outcome in data set [3] (setting [10]) was Active. The “Derived Efficacy (fold induction)” value in data set [3] stood at 14.1669 fold induction.

For the molecule `Cc1cc(=O)oc2cc(N(C)C)ccc12` [7-(Dimethylamino)-4-methylcoumarin], the figures for the AC50 in data set [2] and in data set [3] (setting [9]) were 2880 to 21500 nM and 0.793 µM, respectively. The outcome in data set [3] (setting [10]) was Active. Besides, the “Derived Efficacy (fold induction)” value in data set [3] is listed as 17.3255 fold induction.

Turning to `COc1cccc2c1cc([N+](=O)[O-])c1c(C(=O)O)cc3c(c12)OCO3` [Aristolochic acid], the “pattern of change of 1,25D3 induced VDR:coregulator interaction” value in data set [4] is given as “enhanced the interaction between VDR:SRC-1 only in the absence of RXR”. The “Fold Change (pMNCoR + EpSG5)” value in data set [5] was found to be 25.8. Moreover, in data set [6], the outcome was Active and the “Derived Efficacy (fold inhibition)” value turned out to be 76.1807 fold inhibition. Also, in data set [6] (setting [11]), the IC50 was 820 nM and 827 nM. For the same molecule, the IC50 in data set [7] was 7320 nM.

With `O=S(=O)(O)c1ccccc1` [Benzenesulfonic acid], the “pattern of VDR:coregulator interaction facilitated by the ligand” value in data set [4] is on record as “did not facilitate VDR:RXR or VDR:SRC-1 interactions under any condition”. Moreover, the AC50 in data set [2] is 9900 nM. In data set [3], the outcome was Active and the “Derived Efficacy (fold induction)” value is 13.6777 fold induction. In addition, the AC50 in data set [3] (read-out: Derived AC50 (Transient transactivation assay)) came to 0.772 µM.

As to `C=C1/C(=C\C=C2/CCC[C@]3(C)[C@@H]([C@H](C)/C=C/[C@@H](O)C4CC4)CC[C@@H]23)C[C@@H](O)C[C@@H]1O` [Calcipotriol, reference compound], the “% Induction, pMSRC-1NR + EpSG5” value in data set [1] stood at 142.9%. In data set [2], the AC50 is 0.294 nM. Besides, in data set [3] (setting [10]), the result was Active.

Regarding `O=C(O)CCCc1ccc(N(CCCl)CCCl)cc1` [Chlorambucil, reference compound], the “Fold Change (pMNCoR + EpSG5)” value in data set [5] is 0.9. In addition, in data set [6], the outcome was Active and the “Derived Efficacy (fold inhibition)” value amounted to 68.5251 fold inhibition. For the same molecule, the IC50 in data set [6] (setting [11]) worked out at 21 nM. Further, the IC50 in data set [7] is 0.058 nM.

On to `CCC[CH2][Sn]([Cl])([Cl])[CH2]CCC` [Dibutyltin dichloride], for which the “pattern of change of 1,25D3 induced VDR:coregulator interaction” value in data set [4] was “consistently attenuate recruitment VDR:RXR and VDR:SRC-1 in both the presence and absence of co-expressed coregulators”. Also, in data set [6], the outcome was Active and the “Derived Efficacy (fold inhibition)” value came to 20.5748 fold inhibition. For the same molecule, the IC50 in data set [6] (setting [12]) is 540 nM and 542 nM. Besides, in data set [7], the IC50 was 82.3 nM.

Take `O=C1C(Cl)=C(Cl)C(=O)c2ccccc21` [Dichlone]: in data set [5], the “Fold Change (pMNCoR + EpSG5)” value came out at 1.1. The Activity result in data set [3] is listed as “very weak agonist activity”. In data set [6], the concentration at half-maximal activity (AC50) came to 19800 nM, the Activity entry was “moderate to marked synergistic activity; also recorded: Active” and the “Derived Efficacy (fold inhibition)” value is 86.9798 fold inhibition. In addition, in data set [6] (setting [11]), the IC50 is 240 nM and 243 nM.

Turning to `C=C1CC[C@H](O)C/C1=C/C=C1\CCC[C@]2(C)[C@@H]([C@H](C)/C=C/[C@H](C)C(C)C)CC[C@@H]12` [Ergocalciferol, reference compound], the AC50 in data set [2] was 4280 to 9020 nM.

On to `O=C([O-])c1ccccc1-c1c2ccc(=O)cc-2oc2cc([O-])ccc12.[Na+].[Na+]` [Fluorescein sodium, reference compound], for which the “Derived Efficacy (fold inhibition)” value in data set [6] (setting [13]) turned out to be 101.7383 fold inhibition. The IC50 in data set [7] (setting [14]) was 356 nM.

In the case of `N#C/C(=C1/SCC(c2ccccc2Cl)S1)n1ccnc1` (centres unmarked) [Lanoconazole, reference compound], the AC50 in data set [2] was 21100 nM.

Turning to `Cc1cc(O)c2ccccc2c1O` [Menadiol, reference compound], the Activity entry in data set [3] (setting [10]) is listed as “very weak agonist activity”; in data set [6] (setting [15]), “Active”; in data set [6] (antagonists, transient transactivation assay in the presence of 3 nM 1,25D3, listed as menadiol), “moderate to marked synergistic activity”. Further, the IC50 in data set [6] (setting [16]) was 3490 nM and 3500 nM; in data set [7] (setting [14]), 979 nM. Also, the AC50 in data set [6] (read-out: AC50) was found to be 45800 nM. In addition, the “Derived Efficacy (fold inhibition)” value in data set [6] (setting [13]) is 101.7383 fold inhibition.

In the case of `COC(=O)c1nc(Cl)c(Cl)nc1N` [Methyl 3-amino-5,6-dichloropyrazine-2-carboxylate], the AC50 is 8780 nM in data set [2] and 0.446 µM in data set [3] (setting [9]). In data set [3] (setting [10]), the outcome was Active. In addition, in data set [3], the “Derived Efficacy (fold induction)” value turned out to be 44.5165 fold induction.

Consider `[Au+].[C-]#N.[C-]#N.[K+]` [Potassium dicyanoaurate], for which the “pattern of change of 1,25D3 induced VDR:coregulator interaction” value in data set [4] is recorded as “selectively inhibited VDR:SRC-1 interactions only in the presence of full length wild type RXR”. In data set [6], the result was Active. In data set [6], the “Derived Efficacy (fold inhibition)” value was 76.1807 fold inhibition. Moreover, the IC50 in data set [6] (setting [12]) is 98.5 nM; in data set [7] it was 91.2 nM.

As to `Nc1ccc2cc3ccc(N)cc3nc2c1` [Proflavine hydrochloride], in data set [6] (setting [15]), the result was Active. In data set [6] (setting [17]), the AC50 is 668 nM. Besides, the figures for the IC50 in data set [6] (setting [16]) and in data set [7] (setting [14]) were 555 nM and 3410 nM, respectively. Besides, in data set [6] (setting [13]), the “Derived Efficacy (fold inhibition)” value was found to be 68.3825 fold inhibition.

As to `CC/C(=C(\c1ccccc1)c1ccc(OCCN(C)C)cc1)c1ccccc1` [Tamoxifen citrate, reference compound], in data set [2], the AC50 was 33000 to 56000 nM.

With `C[C@]1(Cn2ccnn2)[C@H](C(=O)O)N2C(=O)C[C@H]2S1(=O)=O` [Tazobactam sodium, reference compound], the result in data set [6] (setting [15]) was Active. For the same molecule, the values for the IC50 in data set [6] (setting [16]) and in data set [7] (setting [14]) were 283 nM and 1980 nM, respectively. In addition, the “Derived Efficacy (fold inhibition)” value in data set [6] (setting [13]) is recorded as 79.1108 fold inhibition.

Turning to `CN(C)C(=S)SSC(=S)N(C)C` [Thiram], the “Fold Change (pMNCoR + EpSG5)” value in data set [5] is recorded as 1.7. For the same molecule, the result in data set [6] (setting [15]) was Active. The AC50 in data set [6] (setting [17]) came out at 479 nM. Moreover, in data set [6] (setting [16]), the IC50 is 420 nM and 428 nM. The “Derived Efficacy (fold inhibition)” value in data set [6] (setting [13]) stood at 76.1807 fold inhibition.

With `Nc1nc(N)c2nc(-c3ccccc3)c(N)nc2n1` [Triamterene, reference compound], the “% Induction, pMSRC-1NR + EpSG5” value in data set [1] stood at 0.9%. For the same molecule, the AC50 in data set [2] was 5300 to 42100 nM; in data set [3] (setting [8]) it was 12.2 µM; in data set [3] (setting [9]), 3.07 µM. Besides, the result in data set [3] (setting [10]) was Active. Also, the “Derived Efficacy (fold induction)” value in data set [3] worked out at 14.7020 fold induction.

In the case of `[OH-].c1cc[c]([Sn+]([c]2ccccc2)[c]2ccccc2)cc1` [Triphenyltin hydroxide], in data set [4], the “pattern of change of 1,25D3 induced VDR:coregulator interaction” value was “consistently attenuate recruitment VDR:RXR and VDR:SRC-1 in both the presence and absence of co-expressed coregulators”. In data set [6], the outcome was Active and the “Derived Efficacy (fold inhibition)” value is reported as 89.3748 fold inhibition. Moreover, the IC50 in data set [6] (setting [12]) was found to be 45.4 nM. Besides, the IC50 in data set [7] is 92.9 nM.

On to Cadmium dinitrate, for which, in data set [4], the “pattern of change of 1,25D3 induced VDR:coregulator interaction” value is “enhanced recruitment of VDR:RXR and VDR:SRC-1 in both the presence and absence of co-expressed coregulators”. In addition, in data set [6], the outcome was Active and the “Derived Efficacy (fold inhibition)” value was 82.6111 fold inhibition. Besides, the IC50 in data set [7] is 167 nM.

Regarding Tributyltin chloride, the IC50 in data set [7] was 959 nM.
